From patent publication US8299048B2, “Hexahydrocyclopentyl[f]indazole sulfonamides and derivatives thereof as selective glucocorticoid receptor modulators” (Merck Sharp & Dohme Corp., priority 2008, dated 2012)
Read-outs that look alike come from different tables or passages of the source.

Biological target: T1, human GR (Homo sapiens, UniProt P04150)
T1 sequence (P04150 1-777): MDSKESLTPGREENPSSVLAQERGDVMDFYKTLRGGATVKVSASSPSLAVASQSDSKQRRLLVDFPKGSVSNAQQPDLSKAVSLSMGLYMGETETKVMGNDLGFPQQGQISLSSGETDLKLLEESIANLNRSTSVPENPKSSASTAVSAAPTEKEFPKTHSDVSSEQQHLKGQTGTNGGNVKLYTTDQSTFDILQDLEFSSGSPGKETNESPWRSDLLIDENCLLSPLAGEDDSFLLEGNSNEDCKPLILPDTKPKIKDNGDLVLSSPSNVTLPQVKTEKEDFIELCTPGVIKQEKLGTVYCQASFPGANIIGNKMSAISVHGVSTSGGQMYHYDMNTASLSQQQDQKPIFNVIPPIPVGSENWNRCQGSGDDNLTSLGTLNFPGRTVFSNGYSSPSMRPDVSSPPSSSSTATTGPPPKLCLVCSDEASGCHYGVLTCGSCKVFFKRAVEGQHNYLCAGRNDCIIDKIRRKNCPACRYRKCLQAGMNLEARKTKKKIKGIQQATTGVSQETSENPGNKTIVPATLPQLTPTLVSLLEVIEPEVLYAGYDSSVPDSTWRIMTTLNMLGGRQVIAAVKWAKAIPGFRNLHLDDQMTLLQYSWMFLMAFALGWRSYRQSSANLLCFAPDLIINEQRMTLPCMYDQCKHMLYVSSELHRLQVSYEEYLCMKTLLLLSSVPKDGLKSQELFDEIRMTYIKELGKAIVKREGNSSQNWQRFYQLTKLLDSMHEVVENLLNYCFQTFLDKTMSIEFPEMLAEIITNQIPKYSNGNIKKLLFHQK
Experiment: Transrepression Assay (GITAR), TNFα-β-lactamase reporter in U937 cells
Assay type: cell-based
Parameters: U937 cells contain an endogenous glucocorticoid receptor (GR); endogenous in cells; host or cells: U937 cells stably transfected with the TNF-alpha promoter/beta-lactamase reporter
Conditions: for GITAR > GRAMM % SEP: GITAR Emax minus GRAMMER Emax; for EC50: inflection point, read-out: Transrepression U937 Cells GITAR IP
Outline: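 First, U937 reporter cells (TNF-α promoter–β-lactamase, native GR) received compound for 30–45 min at 37 °C. Next, PMA (5 ng/ml) and LPS (100 ng/ml) final were added for about 18 hr. Finally, CCF2-AM loading gave the read-out, with 100 nM dexamethasone as 100%.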

[1] = U-937, U937 cells, maximum activity, read-out: Transrepression U937 Cells GITAR Emax
[2] = U-937, activity repressed by 100 nM dexamethasone alone set as 100%, read-out: maximal activity in the transrepression (GITAR) assay

SMILES	GITAR > GRAMM % SEP [%]	EC50 (U937 cells) [nM]	Emax [1] [%]	Emax [2] [%]	Transrepression U937 Cells GITAR Emax (U937 cells, maximum activity) [%]
C[C@]12Cc3cnn(-c4ccc(F)cc4)c3C=C1CC[C@@H]2CN(CCO)S(=O)(=O)c1cc(C(F)(F)F)ccc1Cl [Example 80, 2-chloro-N-{[(4αR,5S)-1-(4-fluorophenyl)-4α-methyl-1,4,4α,5,6,7-hexahydrocyclopenta[f]indazol-5-yl]methyl}-N-(2-hydroxyethyl)-5-(trifluoromethyl)benzenesulfonamide]	64.0	2580	70	> 5	–
Cc1ccccc1S(=O)(=O)N(CCO)C[C@H]1CCC2=Cc3c(cnn3-c3ccc(F)cc3)C[C@@]21C [Example 77, N-{[(4αR,5S)-1-(4-fluorophenyl)-4α-methyl-1,4,4α,5,6,7-hexahydrocyclopenta[f]indazol-5-yl]methyl}-N-(2-hydroxyethyl)-2-methylbenzenesulfonamide]	25.7	1130	43.6	> 5	–
Cc1ccc(S(=O)(=O)N(CCO)C[C@H]2CCC3=Cc4c(cnn4-c4ccc(F)cc4)C[C@@]32C)s1 [Example 64, N-{[(4αR,5S)-1-(4-fluorophenyl)-4α-methyl-1,4,4α,5,6,7-hexahydrocyclopenta[f]indazol-5-yl]methyl}-N-(2-hydroxyethyl)-5-methylthiophene-2-sulfonamide]	21.1	731	29	> 5	–
CNC(=O)Nc1ccc(S(=O)(=O)N(CCO)C[C@H]2CCC3=Cc4c(cnn4-c4ccc(F)cc4)C[C@@]32C)c(Cl)c1 [Example 76, 2-chloro-N-{[(4αR,5S)-1-(4-fluorophenyl)-4α-methyl-1,4,4α,5,6,7-hexahydrocyclopenta[f]indazol-5-yl]methyl}-N-(2-hydroxyethyl)-4-{[(methylamino)carbonyl]amino}-benzenesulfonamide]	9.5	2110	13	> 5	–
Cc1nn(C)c(Cl)c1S(=O)(=O)N(CCO)C[C@H]1CCC2=Cc3c(cnn3-c3ccc(F)cc3)C[C@@]21C [Example 83, 5-chloro-N-{[(4αR,5S)-1-(4-fluorophenyl)-4α-methyl-1,4,4α,5,6,7-hexahydrocyclopenta[f]indazol-5-yl]methyl}-N-(2-hydroxyethyl)-1,3-dimethyl-1H-pyrazole-4-sulfonamide]	52.6	1320	59.5	> 5	–
CCCS(=O)(=O)N(CCc1ccccc1F)C[C@H]1CCC2=Cc3c(cnn3-c3ccc(F)cc3)C[C@@]21C [Example 87, N-[2-(2-fluorophenyl)ethyl]-N-{[(4αR,5S)-1-(4-fluorophenyl)-4α-methyl-1,4,4α,5,6,7-hexahydrocyclopenta[f]indazol-5-yl]methyl}propane-1-sulfonamide]	20.0	212	85.1	> 5	–
C[C@]12Cc3cnn(-c4ccc(F)cc4)c3C=C1CC[C@@H]2CN(CCc1ccccc1F)S(=O)(=O)Cc1cccc(C(F)(F)F)c1 [Example 88, N-[2-(2-fluorophenyl)ethyl]-N-{[(4αR,5S)-1-(4-fluorophenyl)-4α-methyl-1,4,4α,5,6,7-hexahydrocyclopenta[f]indazol-5-yl]methyl}-1-[3-(trifluoromethyl)phenyl]methanesulfonamide]	32.4	646	57.7	> 5	–
Cn1nc(C(F)(F)F)cc1-c1ccc(S(=O)(=O)N(CCO)C[C@H]2CCC3=Cc4c(cnn4-c4ccc(F)cc4)C[C@@]32C)s1 [Example 67, N-{[(4αR,5S)-1-(4-fluorophenyl)-4α-methyl-1,4,4α,5,6,7-hexahydrocyclopenta[f]indazol-5-yl]methyl}-N-(2-hydroxyethyl)-5-[1-methyl-3-(trifluoromethyl)-1H-pyrazole-5-yl]thiophene-2-sulfonamide]	22.8	2060	29.3	> 5	–
C[C@]12Cc3cnn(-c4ccc(F)cc4)c3C=C1CC[C@@H]2CN(CCc1ccccc1Cl)S(=O)(=O)c1ccccc1F [Example 92, N-[2-(2-chlorophenyl)ethyl]-2-fluoro-N-{[(4αR,5S)-1-(4-fluorophenyl)-4α-methyl-1,4,4α,5,6,7-hexahydrocyclopenta[f]indazol-5-yl]methyl}benzenesulfonamide]	26.9	493	68.5	> 5	–
COCCN(C[C@H]1CCC2=Cc3c(cnn3-c3ccc(F)cc3)C[C@@]21C)S(=O)(=O)c1ccccc1F [Example 94, 2-fluoro-N-{[(4αR,5S)-1-(4-fluorophenyl)-4α-methyl-1,4,4α,5,6,7-hexahydrocyclopenta[f]indazol-5-yl]methyl}-N-(2-methoxyethyl)benzenesulfonamide]	31.6	412	75.5	> 5	–
Cc1ccc(CCN(C[C@H]2CCC3=Cc4c(cnn4-c4ccc(F)cc4)C[C@@]32C)S(=O)(=O)c2ccccc2F)cc1 [Example 91, 2-fluoro-N-{[(4αR,5S)-1-(4-fluorophenyl)-4α-methyl-1,4,4α,5,6,7-hexahydrocyclopenta[f]indazol-5-yl]methyl}-N-[2-(4-methylphenyl)ethyl]benzenesulfonamide]	50.8	973	61.5	> 5	–
C[C@]12Cc3cnn(-c4ccc(F)cc4)c3C=C1CC[C@@H]2CN(CCO)S(=O)(=O)Cc1ccccc1 [Example 75, N-{[(4αR,5S)-1-(4-fluorophenyl)-4α-methyl-1,4,4α,5,6,7-hexahydrocyclopenta[f]indazol-5-yl]methyl}-N-(2-hydroxyethyl)-1-phenylmethanesulfonamide]	14.4	473	28.8	> 5	–
C[C@]12Cc3cnn(-c4ccc(F)cc4)c3C=C1CC[C@@H]2CN(CCO)S(=O)(=O)c1cc(F)cc(F)c1 [Example 72]	25.5	486	60.8	> 5	–
C[C@]12Cc3cnn(-c4ccc(F)cc4)c3C=C1CC[C@@H]2CN(CC1CC1)S(=O)(=O)c1ccccc1F [Example 2, N-(cyclopropylmethyl)-2-fluoro-N-{[(4αR,5S)-1-(4-fluorophenyl)-4α-methyl-1,4,4α,5,6,7-hexahydrocyclopenta[f]indazol-5-yl]methyl}benzenesulfonamide]	–	260	73.3	> 5	–
COC(=O)c1ccccc1S(=O)(=O)N(CCO)C[C@H]1CCC2=Cc3c(cnn3-c3ccc(F)cc3)C[C@@]21C [Example 73, methyl 2-{[{[(4αR,5S)-1-(4-fluorophenyl)-4α-methyl-1,4,4α,5,6,7-hexahydrocyclopenta[f]indazol-5-yl]methyl}(2-hydroxyethyl)amino]sulfonyl}benzoate]	56.0	363	81.4	> 5	–
C[C@]12Cc3cnn(-c4ccc(F)cc4)c3C=C1CC[C@@H]2CN(CCc1ccccn1)S(=O)(=O)Cc1cccnc1 [Example 1, N-{[(4αR,5S)-1-(4-Fluorophenyl)-4α-methyl-1,4,4α,5,6,7-hexahydrocyclopenta[f]indazol-5-yl]methyl}-1-pyridin-3-yl-N-(2-pyridin-2-ylethyl)methanesulfonamide]	41.9	407	–	–	73.5
C[C@]12Cc3cnn(-c4ccc(F)cc4)c3C=C1CC[C@@H]2CN(CC1CC1)S(=O)(=O)c1ccccc1C(F)(F)F [Example 4, N-(cyclopropylmethyl)-N-{[(4αR,5S)-1-(4-fluorophenyl)-4α-methyl-1,4,4α,5,6,7-hexahydrocyclopenta[f]indazol-5-yl]methyl}-2-(trifluoromethyl)benzenesulfonamide]	36.2	256	53.1	> 5	–
CC(=O)Nc1ccc(S(=O)(=O)N(CCO)C[C@H]2CCC3=Cc4c(cnn4-c4ccc(F)cc4)C[C@@]32C)cc1 [Example 85, N-(4-{[{[(4αR,5S)-1-(4-fluorophenyl)-4α-methyl-1,4,4α,5,6,7-hexahydrocyclopenta[f]indazol-5-yl]methyl}(2-hydroxyethyl)amino]sulfonyl}phenyl)acetamide]	37.1	4230	38.8	> 5	–
